Source: patent US11648254B2 (Kumquat Biosciences Inc., priority 2021, dated 2023)
Like-named read-outs stand apart in the source and are kept apart here.

What was measured:
SOS1 = SOS1 (Homo sapiens (Human), UniProt Q07889); experiment: Ras-SOS interaction assay (HTRF); assay type: biochemical
[1] = system: MIA PaCa-2 cells (K-Ras G12C); experiment: Ras-SOS cellular growth inhibition assay (CellTiter-Glo, 3D); assay type: cell-based; conditions: Homo sapiens
Method in brief: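 MIA PaCa-2 cells grown in ultra-low-attachment plates (3D) in DMEM/Ham's F12 with 10% FCS and 2.5% horse serum, treated the day after seeding with a 9-point 3-fold compound series for about 5 days. Viability by CellTiter-Glo luminescence; IC50 from four-parameter fit.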

[2] = system: NCI-H1975 cells (EGFR T790M L858R); experiment: EGFR-SOS cellular inhibition assay (CellTiter-Glo, 3D); assay type: cell-based; conditions: Homo sapiens
[3] = K-RasG13D utilized, read-out: IC50 inhibition of SOS
[4] = K-RasG13D, read-out: IC50 value against SOS1
[5] = MIA PaCa-2, 120 h, MIA PaCa-2, 3D proliferation, about 5 days, read-out: Bio-Cell-Prolif-3D (MiaPaca2 IC50)
[6] = 120 h, NCI-H1975, 3D proliferation, about 5 days, read-out: Bio-Cell-Prolif-3D (H1975 IC50)
[7] = MIA PaCa-2, MIA PaCa-2, read-out: IC50 in inhibiting MIA PaCa-2 cell growth
[8] = NCI-H1975, EGFR T790M L858R, read-out: IC50 in inhibiting growth of NCI-H1975 cell line

SOS1, sequence (Q07889 564-1049): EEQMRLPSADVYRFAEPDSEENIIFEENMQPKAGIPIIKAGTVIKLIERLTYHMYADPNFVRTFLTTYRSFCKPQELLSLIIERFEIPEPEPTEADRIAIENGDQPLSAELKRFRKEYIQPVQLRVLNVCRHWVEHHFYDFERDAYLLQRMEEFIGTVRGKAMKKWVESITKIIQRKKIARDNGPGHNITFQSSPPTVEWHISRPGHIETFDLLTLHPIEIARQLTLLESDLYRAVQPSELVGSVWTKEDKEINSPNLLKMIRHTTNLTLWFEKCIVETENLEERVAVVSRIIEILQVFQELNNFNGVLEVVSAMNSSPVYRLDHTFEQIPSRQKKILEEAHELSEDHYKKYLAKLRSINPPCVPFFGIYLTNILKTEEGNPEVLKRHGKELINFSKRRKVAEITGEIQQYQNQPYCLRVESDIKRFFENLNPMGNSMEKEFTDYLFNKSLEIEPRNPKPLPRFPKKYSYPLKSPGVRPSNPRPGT

Row | SMILES | IC50 (SOS1; [3]) | IC50 (SOS1; [4]) | IC50 [1, 5] | IC50 [2, 6] | IC50 [1, 7] | IC50 [2, 8]
1 | COc1nc2nc(C)nc(N[C@H](C)c3cccc(C(F)(F)CO)c3)c2cc1C1CCS(=O)(=O)CC1 [Compound 239, (R)-4-(4-((1-(3-(1,1-difluoro-2-hydroxyethyl)phenyl)ethyl)amino)-7-methoxy-2-methylpyrido[2,3-d]pyrimidin-6-yl)tetrahydro-2H-thiopyran 1,1-dioxide] | < 100 nM | < 50 nM | ≤ 1000 nM | ≤ 1000 nM | < 500 nM | < 500 nM
2 | COc1nc2nc(OC3CN(C(C)C)C3)nc(N[C@H](C)c3cccc(C(F)F)c3F)c2cc1C1(C#N)CC1 [Compound 240, (R)-1-(4-((1-(3-(difluoromethyl)-2-fluorophenyl)ethyl)amino)-2-((1-isopropylazetidin-3-yl)oxy)-7-methoxypyrido[2,3-d]pyrimidin-6-yl)cyclopropane-1-carbonitrile] | 100 to 1000 nM | – | ≤ 1000 nM | ≤ 1000 nM | < 500 nM | < 500 nM
3 | COc1nc2nc(C)nc(N[C@H](C)c3cccc(C(F)(F)C(C)(C)OC4CN(C(C)C)C4)c3F)c2cc1N1CCN(C(C)C)CC1 [Compound 242, (R)-N-(1-(3-(1,1-difluoro-2-((1-isopropylazetidin-3-yl)oxy)-2-methylpropyl)-2-fluorophenyl)ethyl)-6-(4-isopropylpiperazin-1-yl)-7-methoxy-2-methylpyrido[2,3-d]pyrimidin-4-amine] | < 100 nM | < 50 nM | ≤ 1000 nM | ≤ 1000 nM | < 500 nM | < 500 nM
4 | COc1nc2nc(C)nc(N[C@H](C)c3cccc(C(F)(F)C(C)(C)OC4CNC4)c3F)c2cc1N1CCN(C(C)C)CC1 [Compound 243, (R)-N-(1-(3-(2-(azetidin-3-yloxy)-1,1-difluoro-2-methylpropyl)-2-fluorophenyl)ethyl)-6-(4-isopropylpiperazin-1-yl)-7-methoxy-2-methylpyrido[2,3-d]pyrimidin-4-amine] | < 100 nM | < 50 nM | ≤ 1000 nM | ≤ 1000 nM | < 500 nM | < 500 nM
5 | Cc1nc(N[C@H](C)c2cccc(C(F)(F)C(C)(C)O)c2F)c2cc(C3(C#N)CC3)c(N3CCN(C(C)C)CC3)nc2n1 [Compound 244, (R)-1-(4-((1-(3-(1,1-difluoro-2-hydroxy-2-methylpropyl)-2-fluorophenyl)ethyl)amino)-7-(4-isopropylpiperazin-1-yl)-2-methylpyrido[2,3-d]pyrimidin-6-yl)cyclopropane-1-carbonitrile] | < 100 nM | < 50 nM | ≤ 1000 nM | ≤ 1000 nM | < 500 nM | < 500 nM
6 | Cc1nc(N[C@H](C)c2cccc(C(F)(F)C(C)(C)O)c2F)c2cc(C3(C#N)CC3)c(OC3COC3)nc2n1 [Compound 245, (R)-1-(4-((1-(3-(1,1-difluoro-2-hydroxy-2-methylpropyl)-2-fluorophenyl)ethyl)amino)-2-methyl-7-(oxetan-3-yloxy)pyrido[2,3-d]pyrimidin-6-yl)cyclopropane-1-carbonitrile] | < 100 nM | < 50 nM | 1000 to 10000 nM | 1000 to 10000 nM | – | –
7 | Cc1nc(N[C@H](C)c2cccc(C(F)(F)F)c2F)c2cc(C3CCS(=O)(=O)CC3)c(OC3COC3)nc2n1 [Compound 247, (R)-4-(4-((1-(2-fluoro-3-(trifluoromethyl)phenyl)ethyl)amino)-2-methyl-7-(oxetan-3-yloxy)pyrido[2,3-d]pyrimidin-6-yl)tetrahydro-2H-thiopyran 1,1-dioxide] | < 100 nM | < 50 nM | ≤ 1000 nM | ≤ 1000 nM | < 500 nM | < 500 nM
8 | Cc1nc(N[C@H](C)c2cccc(C(F)(F)F)c2F)c2cc(C3CCS(=O)(=O)CC3)c(OC3CN(C)C3)nc2n1 [Compound 248, (R)-4-(4-((1-(2-fluoro-3-(trifluoromethyl)phenyl)ethyl)amino)-2-methyl-7-((1-methylazetidin-3-yl)oxy)pyrido[2,3-d]pyrimidin-6-yl)tetrahydro-2H-thiopyran 1,1-dioxide] | < 100 nM | < 50 nM | ≤ 1000 nM | ≤ 1000 nM | < 500 nM | < 500 nM

More lines, now with the values ahead:

Row | IC50 (SOS1; [3]) | IC50 (SOS1; [4]) | IC50 [1, 5] | IC50 [2, 6] | IC50 [1, 7] | IC50 [2, 8] | SMILES
9 | < 100 nM | < 50 nM | ≤ 1000 nM | ≤ 1000 nM | – | – | Cc1nc(N[C@H](C)c2cccc(C(F)F)c2F)c2cc(C3CCS(=O)(=O)CC3)c(OC3COC3)nc2n1 [Compound 229, (R)-4-(4-((1-(3-(difluoromethyl)-2-fluorophenyl)ethyl)amino)-2-methyl-7-(oxetan-3-yloxy)pyrido[2,3-d]pyrimidin-6-yl)tetrahydro-2H-thiopyran 1,1-dioxide]
10 | < 100 nM | < 50 nM | ≤ 1000 nM | 1000 to 10000 nM | – | – | C[C@@H](Nc1ncnc2nc(OC3COC3)c(N3CCS(=O)(=O)CC3)cc12)c1cccc(C(F)F)c1F [Compound 231, (R)-4-(4-((1-(3-(difluoromethyl)-2-fluorophenyl)ethyl)amino)-7-(oxetan-3-yloxy)pyrido[2,3-d]pyrimidin-6-yl)thiomorpholine 1,1-dioxide]
11 | < 100 nM | < 50 nM | ≤ 1000 nM | ≤ 1000 nM | < 500 nM | < 500 nM | Cc1nc(N[C@H](C)c2cccc(C(F)F)c2F)c2cc(C3(C#N)CC3)c(OC3CCN(C)CC3)nc2n1 [Compound 232, (R)-1-(4-((1-(3-(difluoromethyl)-2-fluorophenyl)ethyl)amino)-2-methyl-7-((1-methylpiperidin-4-yl)oxy)pyrido [2,3-d]pyrimidin-6-yl)cyclopropane-1-carbonitrile]
12 | < 100 nM | < 50 nM | ≤ 1000 nM | ≤ 1000 nM | < 500 nM | < 500 nM | Cc1nc(N[C@H](C)c2cccc(C(F)F)c2F)c2cc(C3(C#N)CC3)c(O[C@H]3CCN(C)C3)nc2n1 [Compound 233, 1-(4-(((R)-1-(3-(difluoromethyl)-2-fluorophenyl)ethyl)amino)-2-methyl-7-(((S)-1-methylpyrrolidin-3-yl)oxy)pyrido [2,3-d]pyrimidin-6-yl)cyclopropane-1-carbonitrile]
13 | < 100 nM | < 50 nM | ≤ 1000 nM | ≤ 1000 nM | – | < 500 nM | Cc1nc(N[C@H](C)c2cccc(C(F)F)c2F)c2cc(C3(C#N)CC3)c(OC[C@H]3CCCN3C)nc2n1 [Compound 235, 1-(4-(((R)-1-(3-(difluoromethyl)-2-fluorophenyl)ethyl)amino)-2-methyl-7-(((R)-1-methylpyrrolidin-2-yl)methoxy)pyrido [2,3-d]pyrimidin-6-yl)cyclopropane-1-carbonitrile]
14 | < 100 nM | < 50 nM | ≤ 1000 nM | ≤ 1000 nM | < 500 nM | < 500 nM | COc1nc2nc(C)nc(N[C@H](C)c3cccc(C(F)(F)CCC4CN(C(C)C)C4)c3F)c2cc1C1CCS(=O)(=O)CC1 [Compound 238, (R)-4-(4-((1-(3-(1,1-difluoro-3-(1-isopropylazetidin-3-yl)propyl)-2-fluorophenyl)ethyl)amino)-7-methoxy-2-methylpyrido[2,3-d]pyrimidin-6-yl)tetrahydro-2H-thiopyran 1,1-dioxide]
